Target: T1, Endothelial lipase (EL) (Homo sapiens, UniProt Q9Y5X9)
T1 construct: transformed by RAGE technology (Athersys) to overexpress endogenous EL; endogenous in cells; the conditioned medium served as the enzyme source
T1 sequence (Q9Y5X9 21-500): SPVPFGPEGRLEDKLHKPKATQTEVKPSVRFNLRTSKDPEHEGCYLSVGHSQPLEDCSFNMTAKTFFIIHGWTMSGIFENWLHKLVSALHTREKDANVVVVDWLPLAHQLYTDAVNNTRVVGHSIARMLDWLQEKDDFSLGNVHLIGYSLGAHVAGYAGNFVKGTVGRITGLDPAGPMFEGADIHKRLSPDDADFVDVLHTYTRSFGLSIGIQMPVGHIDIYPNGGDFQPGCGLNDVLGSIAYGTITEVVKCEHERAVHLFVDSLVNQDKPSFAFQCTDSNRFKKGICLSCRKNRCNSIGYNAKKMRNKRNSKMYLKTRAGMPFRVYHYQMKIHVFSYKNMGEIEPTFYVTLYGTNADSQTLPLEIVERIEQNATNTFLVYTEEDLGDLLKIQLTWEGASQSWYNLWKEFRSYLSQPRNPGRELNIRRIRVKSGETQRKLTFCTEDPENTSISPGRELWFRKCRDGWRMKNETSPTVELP
Assay: Endothelial lipase (EL) enzymatic assay with fluorescent substrate A10070 in DMPG vesicles
Type: biochemical
Conditions: conditioned media from HT-1080 cells overexpressing endogenous EL; 20 min preincubation at 37° C.
Method: Endothelial lipase activity was measured using a fluorescent substrate, A10070, (Invitrogen, CA) doped into an artificial vesicle containing DMPG (Avanti Polar Lipids) as the excipient. Vesicles were prepared by combining 285 μL of 1 mM DMPG in a 1:1 mixture of MeOH and CHCl3 with 15 μL of 1 mM A10070 in a 1:1 mixture of MeOH and CHCl3. The mixture was dried under nitrogen and resuspended in 150 μL of 50 mM HEPES pH 8.0 buffer containing 100 mM NaCl and 0.2 mM EDTA. The sample was allowed to sit at rt for 15 min and then was sonicated 3×4 mins on ice with a Branson Sonicator using duty cycle 1. This preparation provides vesicles with a mole fraction of 0.05 for the FRET substrate.
The enzymatic assay was measured using white, opaque 96-well half area plates. Each well contained 60 μL of assay buffer (50 mM HEPES pH 8.0, 50 mM NaCl and 1 mM CaCl2) and 2 ul of a DMSO solution containing compound of interest. Conditioned media obtained from HT-1080 cells, which were transformed by RAGE technology (Athersys) to overexpress endogenous EL, was added and the reaction was allowed to incubate for 20 min at 37° C. with gentle agitation. The reaction was started by the addition of 20 μL of a 1:4 dilution of vesicles. The final total reaction volume was 100 μL. The reaction rates were measured on a Gemini plate reader with an excitation wavelength of 488 nm and an emission of 530 nm. Readings were taken every 20 seconds for 10 min with agitation between each reading. The slope of the linear portion of the readout was used to calculate the rate of the reaction.

| Structure (SMILES) | IC50 |
| --- | --- |
| N#CC(C(=O)NCC(=O)NC1CC1)c1nc2ccc(-c3cccc(C(=O)N4CCOCC4)c3)cc2s1 (centres unmarked) [Example 10, 2-cyano-N-[(cyclopropyl-carbamoyl)methyl]-2-{6-[3-(morpholine-4-carbonyl)phenyl]-1,3-benzothiazol-2-yl]acetamide] | 18 nM |
| CN(C)C(=O)c1cccc(-c2ccc3nc(C(C#N)C(=O)NCC(=O)NC4CC4)sc3c2)c1 (centres unmarked) [Example 2, 3-{2-[cyano ({[(cyclopropyl-carbamoyl)methyl]carbamoyl})methyl]-1,3-benzothiazol-6-yl}-N,N-dimethyl-benzamide] | 398 nM |

Stronger by IC50, values ahead:

| IC50 | Structure (SMILES) |
| --- | --- |
| 13 nM | N#CC(C(=O)NCC(=O)NC1CC1)c1nc2ncc(-c3ccccc3)cc2s1 (centres unmarked) [Example 21, 2-cyano-N-(2-(cyclopropylamino)-2-oxoethyl)-2-(6-phenylthiazolo[4,5-b]pyridin-2-yl)acetamide] |
| 5 nM | N#CC(C(=O)NCC(=O)NC1CC1)c1nc2ccc(-c3ccc4c(c3)CNC4=O)cc2s1 (centres unmarked) [Example 8, 2-cyano-N-[(cyclopropyl-carbamoyl)methyl]-2-[6-(1-oxo-2,3-dihydro-1H-isoindol-5-yl)-1,3-benzothiazol-2-yl]acetamide] |
| < 1 nM | N#CC(C(=O)NCC(=O)NC1CC1)c1nc2cc(-c3ccc(C(N)=O)cc3)c(F)cc2s1 (centres unmarked) [Example 28, 4-{2-[cyano ({[(cyclopropyl-carbamoyl)methyl]carbamoyl})methyl]-6-fluoro-1,3-benzothiazol-5-yl}benzamide] |
